These results are taken from US10501516B2, “Peptide compound” (TAKEDA PHARMACEUTICAL COMPANY LIMITED, priority 2016, dated 2019).

The target of one series is T1, human GIPR (Homo sapiens, UniProt P48546).
T1 construct: expressed in transfected cells; host or cells: CHO-K1 Cre-luc reporter cells (hGIPR/CHO-K1, also called hGIPR/CRE-LUC/CHO-K1)
T1 sequence (P48546 22-466): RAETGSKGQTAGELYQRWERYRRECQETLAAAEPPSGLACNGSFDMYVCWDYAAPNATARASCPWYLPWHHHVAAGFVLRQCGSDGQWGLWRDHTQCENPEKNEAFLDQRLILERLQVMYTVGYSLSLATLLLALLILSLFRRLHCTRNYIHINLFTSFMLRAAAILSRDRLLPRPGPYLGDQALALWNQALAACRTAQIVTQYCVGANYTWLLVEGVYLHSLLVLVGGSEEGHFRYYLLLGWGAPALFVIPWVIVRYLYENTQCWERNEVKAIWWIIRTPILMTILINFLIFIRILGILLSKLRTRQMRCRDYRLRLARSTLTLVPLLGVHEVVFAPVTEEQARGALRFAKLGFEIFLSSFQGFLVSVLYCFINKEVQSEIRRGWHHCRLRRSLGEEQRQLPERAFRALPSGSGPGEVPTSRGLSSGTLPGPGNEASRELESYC
Kind of series: Reporter assay of human GIPR gene (agonist activity, intracellular cAMP as index). It counts as cell-based. Conditions: Cre-luc reporter, hGIPR/CHO-K1 cells, 4 hours. On the technique in general: A reporter such as luciferase makes a cellular process visible.

The target of another series is T2, human NPY2R (Homo sapiens, UniProt P49146).
T2 construct: expressed in transfected cells; host or cells: CHO-K1 Cre-luc reporter cells (pAKKO1114/hNPY2R#481 No. 88 cells)
T2 sequence (P49146 1-381): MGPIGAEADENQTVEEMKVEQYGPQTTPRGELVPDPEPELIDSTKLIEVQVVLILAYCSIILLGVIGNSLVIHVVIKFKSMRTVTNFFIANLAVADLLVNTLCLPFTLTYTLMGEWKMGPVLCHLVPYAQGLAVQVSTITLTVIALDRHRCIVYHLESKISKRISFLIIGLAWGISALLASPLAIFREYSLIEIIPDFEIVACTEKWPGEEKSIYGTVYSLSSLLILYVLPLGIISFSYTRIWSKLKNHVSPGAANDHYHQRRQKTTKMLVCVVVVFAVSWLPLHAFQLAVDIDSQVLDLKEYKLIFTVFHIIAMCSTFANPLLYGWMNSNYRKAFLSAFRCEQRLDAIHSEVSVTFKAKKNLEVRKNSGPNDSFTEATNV
Kind of series: Reporter assay of human NPY2R gene (agonist activity, decrease in intracellular cAMP as index). The series is classed as cell-based. Conditions: Cre-luc reporter, hNPY2R CHO-K1 cells, forskolin 1.2 μM, 4 hours; read-out: Agonist activity (EC50) hY2R. In a few lines:
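CHO-K1 Cre-luciferase reporter cells stably expressing human NPY2R, stimulated with 1.2 μM forskolin and incubated with test compound at a final 1 μM for 4 h at 37° C. Luciferase read by luminescence. DMSO defined as 100% and 1 μM human PYY(3-36) as 0%, so the value reflects the decrease in cAMP.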

The target of a further series is T3, human GLP-1R (Homo sapiens, UniProt P43220).
T3 construct: expressed in transfected cells; host or cells: CHO-K1 Cre-luc reporter cells (hGLP-1R/Crel cells)
T3 sequence (P43220 24-463): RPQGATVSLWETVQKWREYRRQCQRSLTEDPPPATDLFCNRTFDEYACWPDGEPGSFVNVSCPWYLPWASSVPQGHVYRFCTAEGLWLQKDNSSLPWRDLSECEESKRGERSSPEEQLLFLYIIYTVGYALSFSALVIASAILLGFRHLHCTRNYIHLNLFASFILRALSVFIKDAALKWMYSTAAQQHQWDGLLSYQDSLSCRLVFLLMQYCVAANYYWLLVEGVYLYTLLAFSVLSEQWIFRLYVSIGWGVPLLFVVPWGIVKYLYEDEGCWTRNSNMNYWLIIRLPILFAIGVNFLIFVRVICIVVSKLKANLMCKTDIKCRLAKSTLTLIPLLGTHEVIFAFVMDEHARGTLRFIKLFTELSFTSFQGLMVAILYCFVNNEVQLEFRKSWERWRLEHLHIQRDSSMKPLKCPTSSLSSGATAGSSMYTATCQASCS
Kind of series: Reporter assay of human GLP-1R gene (agonist activity, intracellular cAMP as index). Conditions: Cre-luc reporter, hGLP-1R/Crel cells (CHO-K1), 4 hours. It counts as cell-based. The source says: Evaluation of Agonist Activity Against Human NPY2R, Human GIPR, and Human GLP-1R Using Change in Intracellular cAMP Concentration as Index
The human GLP-1R gene having a sequence identical to the sequence of GenBank Accession No. NM_002062 was cloned into pIRESneo3 vector (Clontech Laboratories, Inc.) to prepare hGLP-1R/pIRESneo3. This vector was introduced to the Cre-luc reporter cells obtained in (1) to obtain transformants. Next, a cell line induced to express luciferase, i.e., hGLP-1R/Crel cells, were selected from the obtained transformants by the addition of human GLP-1(7-37) peptide.
The hGIPR/CRE-LUC/CHO-K1 cells or the hGLP-1R/Crel cells were inoculated at a cell density of 25 μL/well (5,000 cells/well) to a 384-well white plate (Corning, 3570), and cultured overnight in Ham F12 medium containing 10% fetal bovine serum, 100 U/mL penicillin and 100 μg/mL streptomycin in a CO2 incubator of 37° C. On the next day, a medium containing a test compound was added at a concentration of 5 μL/well to the cells, and the resultant cells were incubated for 4 hours in a CO2 incubator of 37° C. to give the final concentration of 1 μM. SteadyGlo (Promega) was added thereto at a concentration of 30 μL/well, and the mixture was shaken with light shielded. After 30 minutes, the luciferase activity was measured using a plate reader Envision (PerkinElmer). For the GIPR agonist activity, the luciferase activity in the presence of 10 μM GIP was defined as 100%, and the luciferase activity from the addition of DMSO instead of the test compound was defined as 0%. The GIPR agonist activity was calculated with a rise in intracellular cAMP concentration as an index.
For the GLP-1R agonist activity, assay similar to above was conducted using the hGLP-1R/Crel cells. The luciferase activity in the presence of 10 μM GLP-1 was defined as 100%, and the luciferase activity from the addition of DMSO instead of the test compound was defined as 0%. The GLP-1R agonist activity was calculated with a rise in intracellular cAMP concentration as an index.

A further series deals with Male C57BL/6J mice. As to the kind of experiment: Conditioned taste aversion (CTA) test. It counts as in vivo, mouse. Conditions: 10 nmol/kg s.c. The procedure:
Male C57BL/6J (9 weeks old) mice were habituated to time-restricted bottled water supply (2-3 hours/day) and subcutaneous injection of saline for 1 week. Mice were divided into the groups based on the data of body weight and water intake. CTA test was performed according to the following protocol. On day 1 for the first conditioning, mice were given 0.1% sodium saccharin solution to drink for 3 hours. Ten-minutes after supplying the saccharin solution, vehicles, liraglutides and P41 were administered subcutaneously. […] On day 2, mice were given tap water for 3 hours and subcutaneous injection of saline after water supply. On day 3, the second conditioning was conducted as the same procedure used on day 1. On day 4, mice were given tap water for 3 hours without subcutaneous injection. On day 5, both tap water and saccharin solution were supplied to mice for 3 hours without subcutaneous injection and the intake of each fluid was measured. Saccharin preference ratio (%) was calculated according to the following equation: {(amount of saccharin intake)/(amount of saccharin intake+amount of water intake)}×100.

Square brackets hold non-standard residues; d marks the D form. Side chains are listed from the residue outwards. Peptide text beside a SMILES is read from it. * marks the point of attachment. C18 diacid = O=C(O)CCCCCCCCCCCCCCCCC(=O)*; NMeY = CN[C@@H](Cc1ccc(O)cc1)C(=O)O; Palmitoyl = CCCCCCCCCCCCCCCC(=O)*; αMeF = C[C@](N)(Cc1ccccc1)C(=O)O; Iva = CC[C@](C)(N)C(=O)O; Aib = CC(C)(N)C(=O)O

For orientation: EC50 means the concentration needed to bring the measured effect to its halfway point. Take `CC[C@H](C)[C@H](NC(=O)[C@H](CO)NC(=O)[C@H](CCCCNC(=O)CNC(=O)CNC(=O)CNC(=O)CNC(=O)CCCCCCCCCCCCCCCCC(=O)O)NC(=O)[C@H](CC(=O)O)NC(=O)[C@H](CO)NC(=O)[C@@H](NC(=O)[C@](C)(Cc1ccccc1)NC(=O)[C@@H](NC(=O)CNC(=O)[C@H](CCC(=O)O)NC(=O)C(C)(C)NC(=O)[C@H](Cc1ccc(O)cc1)NC)[C@@H](C)O)[C@@H](C)O)C(=O)NC(C)(C)C(=O)N[C@@H](CC(C)C)C(=O)N[C@@H](CCC(=O)O)C(=O)N[C@@H](CCCCN)C(=O)N[C@@H](CCC(N)=O)C(=O)N[C@@H](CCCNC(=N)N)C(=O)N[C@@H](CCC(N)=O)C(=O)N[C@@](C)(CC)C(=O)N[C@@H](CCC(=O)O)C(=O)N[C@@H](Cc1ccccc1)C(=O)N[C@H](C(=O)N[C@@H](CCCNC(=N)N)C(=O)N[C@@H](Cc1c[nH]cn1)C(=O)N[C@@H](CC(C)C)C(=O)N[C@@H](CC(C)C)C(=O)N[C@@H](CC(N)=O)C(=O)N[C@@H](CCCCN)C(=O)NC(C)(C)C(=O)N[C@H](C(=O)N[C@@H](CCCNC(=N)N)C(=O)N[C@@H](CCC(N)=O)C(=O)N[C@@H](CCCNC(=N)N)C(=O)N[C@@H](Cc1ccc(O)cc1)C(N)=O)[C@@H](C)O)C(C)C` [Example 42] (H-[NMeY][Aib]EGT[αMeF]TSDK([Gly-Gly-Gly-Gly-C18 diacid])SI[Aib]LEKQRQ[Iva]EFVRHLLNK[Aib]TRQRY-NH2): the concentration giving a half-maximal response (EC50) on human GIPR amounted to 250 pM; at human NPY2R, 2600 pM; on human GLP-1R, 1300 pM.
As for `CCCCCCCCCCCCCCCC(=O)N[C@@H](CCC(=O)NCCCC[C@H](NC(=O)[C@H](C)NC(=O)[C@H](C)NC(=O)[C@H](CCC(N)=O)NC(=O)CNC(=O)[C@H](CCC(=O)O)NC(=O)[C@H](CC(C)C)NC(=O)[C@H](Cc1ccc(O)cc1)NC(=O)[C@H](CO)NC(=O)[C@H](CO)NC(=O)[C@@H](NC(=O)[C@H](CC(=O)O)NC(=O)[C@H](CO)NC(=O)[C@@H](NC(=O)[C@H](Cc1ccccc1)NC(=O)[C@@H](NC(=O)CNC(=O)[C@H](CCC(=O)O)NC(=O)[C@H](C)NC(=O)[C@@H](N)Cc1cnc[nH]1)[C@@H](C)O)[C@@H](C)O)C(C)C)C(=O)N[C@@H](CCC(=O)O)C(=O)N[C@@H](Cc1ccccc1)C(=O)N[C@H](C(=O)N[C@@H](C)C(=O)N[C@@H](Cc1c[nH]c2ccccc12)C(=O)N[C@@H](CC(C)C)C(=O)N[C@H](C(=O)N[C@@H](CCCNC(=N)N)C(=O)NCC(=O)N[C@@H](CCCNC(=N)N)C(=O)NCC(=O)O)C(C)C)[C@@H](C)CC)C(=O)O` [Liraglutide, liraglutide, reference compound], the “induction of conditioned taste aversion (emetic effects)” value in the series on Male C57BL/6J mice was “significantly decreased saccharin preference ratio”.
For `CCCCCCCCCCCCCCCC(=O)NCC(=O)NCC(=O)NCC(=O)NCC(=O)NCCCC[C@H](NC(=O)[C@H](CC(=O)O)NC(=O)[C@H](CO)NC(=O)[C@@H](NC(=O)[C@](C)(Cc1ccccc1)NC(=O)[C@@H](NC(=O)CNC(=O)[C@H](CCC(=O)O)NC(=O)C(C)(C)NC(=O)[C@@H](N)Cc1ccc(O)cc1)[C@@H](C)O)[C@@H](C)O)C(=O)N[C@@H](CO)C(=O)N[C@@H](CCCCN)C(=O)NC(C)(C)C(=O)N[C@@H](CC(C)C)C(=O)N[C@@H](CC(=O)O)C(=O)N[C@@H](CCCCN)C(=O)N[C@@H](CCC(N)=O)C(=O)N[C@@H](CCCNC(=N)N)C(=O)N[C@@H](CCC(N)=O)C(=O)N[C@@](C)(CC)C(=O)N[C@@H](CCC(=O)O)C(=O)N[C@@H](Cc1ccccc1)C(=O)N[C@H](C(=O)N[C@@H](CCCNC(=N)N)C(=O)N[C@@H](Cc1c[nH]cn1)C(=O)N[C@@H](CC(C)C)C(=O)N[C@@H](CC(C)C)C(=O)N[C@@H](CC(N)=O)C(=O)N[C@@H](CCCCN)C(=O)NC(C)(C)C(=O)N[C@H](C(=O)N[C@@H](CCCNC(=N)N)C(=O)N[C@@H](CCC(N)=O)C(=O)N[C@@H](CCCNC(=N)N)C(=O)N[C@@H](Cc1ccc(O)cc1)C(N)=O)[C@@H](C)O)C(C)C` [Example 23] (H-Y[Aib]EGT[αMeF]TSDK([Gly-Gly-Gly-Gly-Palmitoyl])SK[Aib]LDKQRQ[Iva]EFVRHLLNK[Aib]TRQRY-NH2), the EC50 at human GIPR was found to be 91 pM; on human GLP-1R, 130 pM.
